Key:
[1] = tested on: hepatocytes isolated and cultured from obese Zucker (fa/fa) rats; assay: Inhibition of glucose output from hepatocytes isolated and cultured from obese Zucker (fa/fa) rats; assay type: cell-based, rat; settings: Rattus norvegicus, Hepatocyte; inhibition of glucose output compared to glucagon stimulated cells
Description: Inhibition of Glucose Output from Hepatocytes Isolated and Cultured from Obese Zucker (fa/fa) Rats and Their Lean Controls
Culturing of Hepatocytes: Isolated hepatocytes were plated on 12 well rat-tail collagen coated plates at a cell density of 5×10(5) cells/ml (approximately 1 ml of cell suspension per well). Following a one hour attachment period in which plates were incubated in a CO2 incubator at 37 deg C. (95% O2, 5% CO2), the supernatant containing unattached hepatocytes was removed and replaced with fresh media (1 ml/well) containing 1 μM dexamethasone and 100 pM insulin. Cells were maintained at 37 deg C. for 48 hours in a 95% O2, 5% CO2 environment. At the end of the first 24 hours, the media was aspirated off of the wells and replaced with fresh media containing the same concentrations of dexamethasone and insulin as described earlier. Treatment with Drugs and Assessment of Glucose Output: Drugs were routinely added with fresh media 24 hours after the initial attachment period. Eighteen hours later, media was aspirated and 500 μl of fresh Hank's buffer, Buffer D (glucose-free) supplemented with hormones, gluconeogenic substrates and drug(s) was added to each well and incubated for 4 hours. At the end of the 4 hour incubation, media from each well was removed and assayed for glucose content using the hexokinase/glucose-6-phosphate dehydrogenase coupled assay on the Boehringer Mannheim model 911 auto analyzer. Glucose concentration was expressed as μg/ml. Three of the plates from each treated group were frozen for subsequent determination of protein content. Two plates from each treatment group were used to assess the cytotoxicity of drug(s) and other agents as determined by the MTT (tetrazolium) dye reduction method (see below).
Protein test procedure: Three plates with no insulin treatment and three plates with 10^−8 M insulin treatment were used for protein determination. After supernatant has been removed for determination of glucose output the plates were frozen and stored at −20 deg C. until ready to assay for protein content. Prior to determination of protein the plates were defrosted at room temperature for 15 minutes. An aliquot of 1 ml 0.1 N NaOH was added to each well. Plates were incubated at 4 deg C. overnight. Solutions for measurement of protein content were mixed by pipetting the NaOH solution up and down several time with a 1 ml pipette and then transferring to a small polyethylene tube. Protein determination was based on that of the Pierce BCA protein assay protocol (Pierce cat. no. 23223). A set of protein standards (0.2, 0.4, 0.6, 0.8, and 1 mg/ml BSA) was prepared by serial dilution of 1 mg/ml bovine serum albumin with 0.1 N NaOH, and 40 μl of each standard, or control blank was pipetted into a 96-well plate in duplicate. Each unknown protein sample (40 μl) was tested in triplicate. An aliquot of 200 μl of BCA protein assay reagent (consisting of 50 parts Reagent A with 1 part Reagent B) was added to each well. Samples were mixed with a Titertek pipette. The microtiter plate was covered with sealing tape and incubated at room temperature for 1 hour. After incubation, the sealing tape was removed and absorbance measured on a plate reader (Uvmax kinetic microplate reader, Molecular Devices) at 570 nm. A standard curve was prepared by plotting the blank-corrected absorbance against known protein concentrations, and protein concentrations were then determined for each unknown.
Measurements and Calculations: Glucose output was calculated as μg glucose/mg protein/hour, and inhibition of glucose output was calculated as percent inhibition of glucose output when compared to glucagon stimulated cells. Cytotoxicity was determined using the MTT dye reduction assay and data were expressed as percent inhibition of MTT dye reduction compared to control cells. […]

diabetic ob/ob mice [2] = assay: Hypoglycemic effect in diabetic ob/ob mice; assay type: in vivo, mouse; settings: 25 mg/kg
Description: Hypoglycemic Effect in Diabetic OB/OB Mice
Procedure: In each study, male or female ob/ob (C57 B1/6J) mice and their mean litermates (ob/+ or +/+, Jackson Laboratories) ages 2 to 5 months (10 to 65 g) were randomized according to plasma glucose into 4 groups of 10 mice. The mice were housed 5 per cage and were maintained on normal rodent chow with water ad libitum. Mice receive compound daily by gavage (suspended in 0.5 ml of 0.5% methyl cellulose); dissolved in the drinking water; or admixed in the diet. The dose of compounds given ranges from 2.5 to 200 mg/kg body weight/day. Body weight of fed animals was measured at the beginning of each week and doses for the entire week were calculated using this weight and were expressed in terms of the active moiety of the compound. Control mice receive vehicle only. […]
Measurements: The plasma was isolated by centrifugation and the concentration of glucose was measured enzymatically on an Abbott V. P. Analyzer and the plasma concentration of insulin was determined by radioimmunoassay (Heding, 1972)
Analysis of variance followed by Dunnett's Comparison Test (one-tailed) was used to estimate the significant difference between the plasma glucose values from the control group and the individual compound treated groups (CMS SAS Release 5.18). A compound will be considered active if the difference has a p<0.05.

diabetic ob/ob mice [3] = settings: reference compound, 20 mg/kg/day; cited from earlier work

Compound | IC50 [1] | REDUCTION IN PLASMA GLUCOSE Day 1 (6 hr) p.o. (diabetic ob/ob mice [2]; Day 1 (6 hr)) | REDUCTION IN PLASMA GLUCOSE Day 3 (6 hr) p.o. (diabetic ob/ob mice [2]; Day 3 (6 hr)) | melting point | lowering in plasma glucose (diabetic ob/ob mice [3])
O=S(=O)(Nc1ccc2c(OCc3ccc(-c4ccc(Cl)c(Cl)c4)cc3Cl)cccc2c1)C(F)(F)F [Example 30, C,C,C-Trifluoro-N-[5-(3,3′,4′-trichloro-biphenyl-4-ylmethoxy)-naphthalen-2-yl]-methanesulfonamide] | 3.1 µM | −6% (25 mg/kg) | −11% (25 mg/kg) | 169 to 170 °C | 
sodium metavanadate |  |  |  |  | significant lowering in plasma glucose

From patent US6933322B2, “Substituted naphthylenes for the treatment of non-insulin dependent diabetes mellitus” (Wyeth, priority 2002, dated 2005)
